Assay results taken from the NIST ThermoML archive (doi:10.1021/acs.jced.6b00916).
“And” between values parts separate entries of the source, which are not always exact repeats. Equal values may be shown once. ± gives the expanded uncertainty stated by the source.

Conditions: Liquid, Closed cell (Static) method

FC(F)(F)/C=C/Cl [(E)-1-chloro-3,3,3-trifluoroprop-1-ene]
Conditions	vapor or sublimation pressure
234.15 K	7.2 ± 1 kPa
237.15 K	8.5 ± 1 kPa
240.15 K	10 ± 1 kPa
243.15 K	11.7 ± 1 kPa
246.15 K	13.7 ± 1 kPa
249.15 K	16 ± 1 kPa
252.15 K	18.6 ± 1 kPa
255.15 K	21.6 ± 1 kPa
258.15 K	25 ± 1 kPa
261.15 K	28.8 ± 1 kPa
264.15 K	33.1 ± 1 kPa
267.15 K	38 ± 1 kPa
270.15 K	43.4 ± 1 kPa
273.15 K	49.4 ± 1 kPa
276.15 K	56.1 ± 1 kPa
279.15 K	63.6 ± 1 kPa
282.15 K	71.7 ± 1 kPa
285.15 K	80.7 ± 1 kPa
288.15 K	90.6 ± 1 kPa
291.15 K	101.7 ± 1 kPa
293.15 K	108.8 ± 1 kPa
294.15 K	113.6 ± 1 kPa
295.15 K	117.2 ± 1 kPa
297.15 K	126 ± 1 kPa and 126.6 ± 1 kPa and 126.4 ± 1 kPa
299.15 K	135.1 ± 1 kPa
300.15 K	140.5 ± 1 kPa
301.15 K	144.9 ± 1 kPa
303.15 K	155.3 ± 1 kPa and 155.9 ± 1 kPa
305.15 K	166.3 ± 1 kPa
306.15 K	172.6 ± 1.1 kPa
307.15 K	177.8 ± 1.1 kPa
309.15 K	190.1 ± 1.1 kPa and 190.6 ± 1.1 kPa
311.15 K	202.9 ± 1.1 kPa
312.15 K	210 ± 1.1 kPa
313.15 K	216.1 ± 1.1 kPa
315.15 K	230.1 ± 1.1 kPa and 230.9 ± 1.1 kPa
317.15 K	245 ± 1.1 kPa
318.15 K	253.5 ± 1.1 kPa
319.15 K	260.7 ± 1.1 kPa
321.15 K	277.1 ± 1.1 kPa and 277.7 ± 1.1 kPa
323.15 K	296.3 ± 1.1 kPa and 294.3 ± 1.1 kPa
324.15 K	303.6 ± 1.1 kPa
325.15 K	312.2 ± 1.1 kPa
327.15 K	331 ± 1.2 kPa and 331.3 ± 1.2 kPa
329.15 K	350.5 ± 1.2 kPa
330.15 K	361 ± 1.2 kPa
331.15 K	371 ± 1.2 kPa
333.15 K	392.5 ± 1.2 kPa and 392.6 ± 1.2 kPa
335.15 K	413.9 ± 1.2 kPa
336.15 K	426.2 ± 1.2 kPa
337.15 K	437.2 ± 1.3 kPa
339.15 K	461.2 ± 1.3 kPa and 461.9 ± 1.3 kPa
341.15 K	486.3 ± 1.3 kPa
342.15 K	499.8 ± 1.3 kPa
343.15 K	513.2 ± 1.3 kPa
345.15 K	540.4 ± 1.4 kPa and 540 ± 1.4 kPa
347.15 K	568.5 ± 1.4 kPa
348.15 K	582.7 ± 1.4 kPa
349.15 K	597.9 ± 1.4 kPa
351.15 K	628.7 ± 1.5 kPa and 628.1 ± 1.5 kPa
353.15 K	660.4 ± 1.5 kPa
354.15 K	675.8 ± 1.5 kPa
357.15 K	726.3 ± 1.6 kPa
360.15 K	779.6 ± 1.6 kPa
363.15 K	835.8 ± 1.7 kPa
366.15 K	894.8 ± 1.8 kPa
369.15 K	957.1 ± 1.9 kPa
372.15 K	1022.5 ± 2 kPa
375.15 K	1091.3 ± 2 kPa
